Columns and labels:
[1] = tested on: Influenza A virus A/WSN/33 (H1N1) neuraminidase (NA) on virus, wild type, SEQ ID NO: 4; assay type: biochemical
[2] = tested on: Influenza A virus A/WSN/33 (H1N1) neuraminidase (NA), wild type, SEQ ID NO: 4; assay type: biochemical

| Compound | Km [1] | Kcat [2] | Km [2] | Vmax [2] |
| --- | --- | --- | --- | --- |
| CC(=O)N[C@H]1[C@H]([C@H](O)[C@H](O)CO)O[C@@](O[C@H]2[C@@H](O)[C@@H](CO)O[C@@H](O[C@H]3[C@H](O)[C@@H](NC(C)=O)C(O)O[C@@H]3CO)[C@@H]2O)(C(=O)O)C[C@@H]1O (stereo partly drawn) [3SLN, 3′-sialyl-N-acetyllactosamine] | 115 µM | 688.2 s⁻¹ | 125 µM | 7.04 nM/s |
| CC(=O)N[C@H]1[C@H]([C@H](O)[C@H](O)CO)O[C@@](Oc2ccc3c(C)cc(=O)oc3c2)(C(=O)O)C[C@@H]1O [4-Muα-Neu5Ac, 2-(4-methylumbelliferyl)-α-D-N-acetylneuraminic acid] | 487 µM | 514.3 s⁻¹ | 585 µM | 5.025 nM/s |
| CC(=O)N[C@H]1[C@H]([C@H](O)[C@H](O)CO)O[C@@](OC[C@H]2O[C@@H](O[C@H]3[C@H](O)[C@@H](NC(C)=O)C(O)O[C@@H]3CO)[C@H](O)[C@@H](O)[C@H]2O)(C(=O)O)C[C@@H]1O (stereo partly drawn) [6SLN, 6′-sialyl-N-acetyllactosamine] | 534 µM | 104.2 s⁻¹ | 679 µM | 1.07 nM/s |

From US12607406B2, “Recombinant virus, composition comprising the same, and uses thereof” (ACADEMIA SINICA, priority 2016, dated 2026)
